The test system of one experiment is human chondrocytes. Kind of experiment: T3-induced hypertrophy of primary chondrocytes. It is filed as cell-based. To be noted: T3 medium 14 or 21 days, maintained after exposure to chondrogenic medium. From the text:
FIGS. 7A-7F are microphotographs of human chondrocytes. Chondrocytes extracted from human donors have been cultured under a test medium to induce hypertrophy for 14 or 21 days followed by 14 or 7 days of chondrogenic medium, respectively. The test medium was either chondrogenic medium (negative control, no hypertrophy), medium containing triiodothyronine (T3) (hypertrophic), osteogenic medium (hypertrophic).
In autologous chondrocytes implantation (ACI) chondrocytes are implanted in a local cartilage defect. In an in vitro model of ACI based on a small osteochondral unit, as the one we use, a central cartilage defect would be filled with chondrocytes in a hydrogel. To simulate conditions of calcification, the chondrocytes will be pre-cultured in a hypertrophy inducing medium. After seeding, both native cartilage and implanted chondrocytes would be exposed to chondrogenic medium. We have previously shown that T3 induces hypertrophy in MSCs that underwent chondrogenic differentiation. […] Chondrogenic medium and osteogenic medium are used as comparison.

For experiment [1], the system named is human osteochondral plugs. Kind of experiment: T3-induced calcification of human osteochondral plugs (ALP assay, real time-PCR). The format is cell-based. To be noted: treatment with triiodothyronine (T3), day 0 versus day 20. From the text:
FIG. 5 represents the outline for testing of preventing calcification. Experimental design to test the effects of triiodothyronine in inducing calcification and of dorsomorphin in inhibiting calcification in human osteochondral biopsies, an example of which is depicted on the right.
FIG. 6 is two graphs depicting ALP activity. The graphs represent the level of ALP activity in the osteochondral constructs media measured with a colorimetric ALP assay for the samples outlined in the previous figure.
Dorsomorphin has been encapsulated in PLGA-based MPs of micrometer scale dimensions. As the particles degrade, dorsomorphin is released generating a local concentration within the range required to prevent local calcification. To confirm this, human osteochondral plugs (3 mm by 3 mm by 8 mm of a cartilage and bone biopsy-like sample) have been forced to calcify using triiodothyronine (T3) and then exposed to dorsomorphin.

The structures appear in SMILES notation.

For `N[C@@H](Cc1cc(I)c(Oc2ccc(O)c(I)c2)c(I)c1)C(=O)O` [triiodothyronine], in the experiment with human chondrocytes, the primary chondrocytes hypertrophy entry is “effective to induce primary chondrocytes hypertrophy”. The “ALP activity in osteochondral constructs media” value in experiment [1] is listed as “statistically significant (p<0.05) increase in ALP activity”.
